Measurements reported in patent US20260130933A1, “PHARMACEUTICAL COMPOSITION FOR PREVENTION OR TREATMENT OF NEPHROPATHY AND/OR DIABETES MELLITUS, COMPRISING ENAVOGLIFLOZIN” (DAEWOONG PHARMACEUTICAL CO., LTD., priority 2022, published 2026).

Test: Example 2: phase 3 trial, enavogliflozin 0.3 mg vs dapagliflozin 10 mg once a day for 24 weeks added to metformin in patients with type 2 diabetes (same efficacy, exploratory and safety endpoints)
Format: in vivo, human
Experimental: Subjects who met the inclusion/exclusion criteria were administered a placebo of the clinical trial drug under single-blind (subject blinding) conditions during a 2-week run-in period while continuing to receive metformin. […] The randomized subjects were administered two tablets of the clinical trial drug for each administration group once a day, and then visited the institution at weeks 6, 12, 18, and 24 during the 24-week administration period to conduct efficacy and safety evaluations.
• 1. Change in HbA1c at week 24 after administration of clinical trial drug compared to Visit 2 (randomization)
• 1. Change in HbA1c at each time point of weeks 6, 12, and 18 after administration of clinical trial drug compared to Visit 2 (randomization) • 2. Change in FPG at each time point of weeks 6, 12, 18, and 24 after administration of clinical trial drug compared to Visit 2 (randomization) • 3. Proportion of subjects achieving HbA1c<7% at each time point of weeks 6, 12, 18, and 24 after administration of clinical trial drug • 4. Proportion of subjects achieving HbA1c<6.5% at each time point of weeks 6, 12, 18, and 24 after administration of clinical trial drug • 5. Proportion of subjects achieving therapeutic response (HbA1c change (HbA1c at Visit 2-HbA1c at each evaluation time point)>0.5% or HbA1c<7% at each evaluation time point compared to Visit 2 (randomization)) at each time point of weeks 6, 12, 18 and 24 after administration of clinical trial drug
• 1. Change in fasting c-peptide at each time point of weeks 6, 12, 18, and 24 after administration of clinical trial drug compared to Visit 2 (randomization) • 2. Change in body weight at each time point of weeks 6, 12, 18, and 24 after administration of clinical trial drug compared to Visit 2 (randomization) • 3. Change in fasting lipid concentration (total cholesterol, LDL-C, HDL-C, and triglycerides) at each time point of weeks 6, 12, 18, and 24 after administration of clinical trial drug compared to Visit 2 (randomization) • 4. Changes in systolic or diastolic blood pressure at each time point of weeks 6, 12, 18, and 24 after administration of clinical trial drug compared to Visit 2 (randomization) • 5. Changes in β-cell function and insulin resistance measured by HOMA-β and HOMA-IR at each time point of weeks 6, 12, 18, and 24 after administration of clinical trial drug compared to Visit 2 (randomization) • 6. Changes in renal function-related indicators (UACR, UGCR) measured by UACR at each time point of weeks 6, 12, 18, and 24 after administration of clinical trial drug compared to Visit 2 (randomization) • 7. Changes in obesity-related indicators (adiponectin, leptin) at each time point of weeks 6, 12, 18, and 24 after administration of clinical trial drug compared to Visit 2 (randomization)

[1] = week 18, per-protocol set, enavogliflozin 0.3 mg, dapagliflozin 10 mg
[2] = week 24, listed as enavogliflozin
[3] = week 24, modified per-protocol set 1, enavogliflozin 0.3 mg, dapagliflozin 10 mg
[4] = week 24, per-protocol set, enavogliflozin 0.3 mg vs dapagliflozin 10 mg
[5] = week 24, per-protocol set, enavogliflozin 0.3 mg, dapagliflozin 10 mg

In the case of `OC[C@H]1O[C@@H](c2cc(Cc3ccc(C4CC4)cc3)c(Cl)c3c2CCO3)[C@H](O)[C@@H](O)[C@@H]1O` [Enavogliflozin, (2S,3R,4R,5S,6R)-2-(7-chloro-6 (4-cyclopropylbenzyl)-2,3-dihydrobenzofuran-4-yl)-6-(hydroxymethyl)tetrahydro-2H-pyran-3,4,5-triol], the “Subjects achieving HbA1c target of <6.5%, (%)” value [1] is reported as “(9.89) %”, the “Subjects achieving therapeutic glycemic response, (%)” value [1] is reported as “(80.22) %” and the “body weight, Mean (SD)” value [1] is reported as 66.72(11.26) kg. The “body weight, Median” value [1] was 64.30 kg, the “fasting c-peptide, Mean (SD)” value [1] was 0.65(0.24) ng/mL and the “fasting c-peptide, Median” value [1] was 0.61 ng/mL. The “FPG change from baseline, LS mean (SE)” value (week 24) was −32.53(1.76) mg/dL, the “HOMA-IR change from baseline, LS mean (SE)” value (week 24) was −1.85(0.13) and the “HOMA-β change from baseline, LS mean (SE)” value (week 24) was 6.94(3.17). The “HbA1c change from baseline, LS mean (SE)” value (week 24) was −0.80 % p, the “HbA1c change from baseline, Mean (SD)” value (week 24) was −0.78 % p and the “HbA1c, Mean” value (week 24) was 6.98%. For the same compound, the “LDL-C change from baseline, LS mean (SE)” value (week 24) was 1.64(1.92) mg/dL, the “Subjects achieving HbA1c target of <7%” value (week 24) was “(61.05) %” and the “Subjects achieving HbA1c<6.5%” value (week 24) was 13.68%. For the same compound, the “Subjects achieving therapeutic response (HbA1c change >0.5% or HbA1c<7%)” value (week 24) was 78.95%, the “UACR change from baseline, LS mean (SE)” value (week 24) was −24.29(3.38) g/kg and the “UGCR change from baseline, LS mean (SE)” value (week 24) was 60.48(2.12) mg/mg. The “diastolic blood pressure change from baseline, LS mean (SE)” value (week 24) was −5.41(0.65) mmHg, the “fasting c-peptide change from baseline, LS mean (SE)” value (week 24) was −0.10(0.16) ng/ml and the “leptin change from baseline, LS mean (SE)” value (week 24) was −2.40(0.51) ng/mL. The “FPG change from baseline, LS mean difference” value (week 24, vs dapagliflozin) was -3.38 mg/dL, the “HDL-C change from baseline, LS mean difference” value (week 24, vs dapagliflozin) was -0.14 mg/dL and the “HOMA-IR change from baseline, LS mean difference” value (week 24, vs dapagliflozin) was −0.53. For the same compound, the “HOMA-β change from baseline, LS mean difference” value (week 24, vs dapagliflozin) was −4.99, the “HbA1c change from baseline, LS mean difference” value (week 24, vs dapagliflozin) was −0.04 % p and the “LDL-C change from baseline, LS mean difference” value (week 24, vs dapagliflozin) was 0.71 mg/dL. The “Odds ratio for achieving HbA1c<6.5%” value (week 24, vs dapagliflozin) was 0.40, the “Odds ratio for achieving HbA1c<7%” value (week 24, vs dapagliflozin) was 0.97 and the “Odds ratio for achieving therapeutic response” value (week 24, vs dapagliflozin) was 1.30. The “UACR change from baseline, LS mean difference” value (week 24, vs dapagliflozin) was −6.93, the “UGCR change from baseline, LS mean difference” value (week 24, vs dapagliflozin) was 15.54 mg/mg and the “body weight change from baseline, LS mean difference” value (week 24, vs dapagliflozin) was -0.18 kg. For the same compound, the “diastolic blood pressure change from baseline, LS mean difference” value (week 24, vs dapagliflozin) was −1.15 mmHg, the “fasting c-peptide change from baseline, LS mean difference” value (week 24, vs dapagliflozin) was -0.06 ng/mL and the “leptin change from baseline, LS mean difference” value (week 24, vs dapagliflozin) was -1.12 ng/mL. The “systolic blood pressure change from baseline, LS mean difference” value (week 24, vs dapagliflozin) was 0.63 mmHg, the “total cholesterol change from baseline, LS mean difference” value (week 24, vs dapagliflozin) was 2.40 mg/dL and the “triglyceride change from baseline, LS mean difference” value (week 24, vs dapagliflozin) was 1.63 mg/dL. The “HbA1c change from baseline, LS mean (SE)” value [2] was −0.80(0.06) % p, the “HbA1c change from baseline, Mean (SD)” value [2] was −0.78(0.73) % p and the “Subjects achieving HbA1c target of <7%” value [2] was 61.05%. The “Change from baseline in total cholesterol, ANCOVA LS mean difference” value (week 24, modified per-protocol set 1, enavogliflozin 0.3 mg vs dapagliflozin 10 mg) was 2.40 mg/dL, the “Change from baseline in Total cholesterol, ANCOVA LS mean (SE)” value [3] was 9.13(2.22) mg/dL and the “Change from baseline in Total cholesterol, Mean (SD)” value [3] was 7.99(20.78) mg/dL. For the same compound, the “Change from baseline in total cholesterol, Median” value [3] was 11.00 mg/dL, the “fasting Total cholesterol, Mean (SD)” value [3] was 159.42(32.17) mg/dL and the “fasting Total cholesterol, Median” value [3] was 157.00 mg/dL. For the same compound, the “Change from baseline in FPG, ANCOVA LS mean difference” value [4] was -3.38 mg/dL, the “Change from baseline in body weight, ANCOVA LS mean difference” value [4] was -0.18 kg and the “Change from baseline in fasting c-peptide, ANCOVA LS mean difference” value [4] was -0.06 ng/mL. For the same compound, the “Odds ratio for achieving HbA1c target of <6.5%, logistic regression model” value [4] was 0.40, the “Odds ratio for achieving therapeutic glycemic response, logistic regression model” value [4] was 1.30 and the “Change from baseline in FPG, ANCOVA LS mean (SE)” value [5] was -32.53 mg/dL. For the same compound, the “Change from baseline in FPG, Mean (SD)” value [5] was -31.77 mg/dL, the “Change from baseline in FPG, Median” value [5] was -31.00 mg/dL and the “Change from baseline in body weight, ANCOVA LS mean (SE)” value [5] was −3.77(0.33) kg. For the same compound, the “Change from baseline in body weight, Mean (SD)” value [5] was −3.78(3.77) kg, the “Change from baseline in body weight, Median” value [5] was -3.60 kg and the “Change from baseline in fasting c-peptide, ANCOVA LS mean (SE)” value [5] was −0.10(0.02) ng/mL. The “Change from baseline in fasting c-peptide, Mean (SD)” value [5] was −0.10(0.16) ng/mL, the “Change from baseline in fasting c-peptide, Median” value [5] was -0.07 ng/mL and the “FPG, Mean (SD)” value [5] was 113.58 mg/dL. The “FPG, Median” value [5] was 113.00 mg/dL, the “Subjects achieving HbA1c target of <6.5%, (%)” value [5] was “(13.68) %” and the “Subjects achieving therapeutic glycemic response, (%)” value [5] was “(78.95) %”. For the same compound, the “body weight, Mean (SD)” value [5] was 66.39(10.90) kg, the “body weight, Median” value [5] was 64.40 kg and the “fasting c-peptide, Mean (SD)” value [5] was 0.62(0.22) ng/mL. The “fasting c-peptide, Median” value [5] was 0.56 ng/mL.
